The values below come from patent US9359358B2, “Cyclohexyl azetidine derivatives as JAK inhibitors” (Incyte Holdings Corporation, priority 2011, dated 2016).

Bounds are passed on as bounds.

One assay addresses T1, human JAK1 (Homo sapiens, UniProt P23458).
T1 construct: human JAK1 (a.a. 837-1142); His tag (N); made in house; host or cells: insect cells (baculovirus)
Briefly: In Vitro JAK Kinase Assay (HTRF, phosphorylation of a biotinylated peptide), JAK1. In kind it is biochemical. Conditions: Table 5; catalytic domain a.a. 837-1142, assay of Example A. In a few lines: (§1)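 HTRF detection (SA-APC plus Eu-labeled anti-phosphotyrosine Py20, 40 min after EDTA stop) quantified biotinylated-peptide phosphorylation. Kinase reactions with human JAK1 or JAK2 catalytic domains lasted 1 h at room temperature.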

For a further assay, the target named is T2, human JAK2 (Homo sapiens, UniProt O60674).
T2 construct: JAK2 (a.a. 828-1132); His tag (N); made in house; host or cells: insect cells (baculovirus)
As to the kind of experiment: In Vitro JAK Kinase Assay (HTRF, phosphorylation of a biotinylated peptide), JAK2. In kind it is biochemical. Conditions: Table 5; assay of Example A. In a few lines:
as §1

T1 sequence (P23458 849-1154): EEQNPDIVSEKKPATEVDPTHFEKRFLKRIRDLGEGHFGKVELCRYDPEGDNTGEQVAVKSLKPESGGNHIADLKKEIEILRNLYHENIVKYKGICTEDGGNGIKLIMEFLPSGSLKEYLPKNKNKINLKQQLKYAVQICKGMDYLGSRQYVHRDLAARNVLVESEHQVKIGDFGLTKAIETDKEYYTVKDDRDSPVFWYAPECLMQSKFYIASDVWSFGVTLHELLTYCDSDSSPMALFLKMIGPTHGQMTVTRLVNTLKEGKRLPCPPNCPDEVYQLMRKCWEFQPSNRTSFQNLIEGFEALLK
T2 sequence (O60674 828-1132): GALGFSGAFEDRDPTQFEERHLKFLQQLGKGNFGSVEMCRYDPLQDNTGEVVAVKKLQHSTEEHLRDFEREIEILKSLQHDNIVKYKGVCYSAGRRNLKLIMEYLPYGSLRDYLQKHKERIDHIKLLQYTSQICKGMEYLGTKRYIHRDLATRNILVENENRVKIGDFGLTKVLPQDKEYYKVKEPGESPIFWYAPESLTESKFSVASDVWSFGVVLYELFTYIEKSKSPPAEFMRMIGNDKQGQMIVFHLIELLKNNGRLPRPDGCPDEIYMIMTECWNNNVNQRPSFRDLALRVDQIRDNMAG

In the case of `C[C@H](CO)NC(=O)c1cc(O[C@H]2CC[C@@H](N3CC(CC#N)(n4cc(-c5ncnc6[nH]ccc56)cn4)C3)CC2)nc(C(F)(F)F)c1` [Example 85, 2-[(cis-4-{3-(cyanomethyl)-3-[4-(7H-pyrrolo[2,3-d]pyrimidin-4-yl)-1H-pyrazol-1-yl]azetidin-1-yl}cyclohexyl)oxy]-N-[(1R)-2-hydroxy-1-methylethyl]-6-(trifluoromethyl)isonicotinamide bis(trifluoroacetate)], at human JAK1, the IC50 was < 10 nM. In addition, the “JAK2/JAK1 IC50 ratio” value at human JAK2 is “≧10”.

`N#CCC1(n2cc(-c3ncnc4[nH]ccc34)cn2)CN([C@H]2CC[C@@H](Oc3cc(C(=O)NC4CC4)cc(C(F)(F)F)n3)CC2)C1` [Example 86, 2-[(cis-4-{3-(cyanomethyl)-3-[4-(7H-pyrrolo[2,3-d]pyrimidin-4-yl)-1H-pyrazol-1-yl]azetidin-1-yl}cyclohexyl)oxy]-N-cyclopropyl-6-(trifluoromethyl)isonicotinamide bis(trifluoroacetate)]: the IC50 against human JAK1 is < 10 nM. For the same molecule, the “JAK2/JAK1 IC50 ratio” value at human JAK2 was “≧10”.

`CN(C(=O)c1cc(O[C@H]2CC[C@@H](N3CC(CC#N)(n4cc(-c5ncnc6[nH]ccc56)cn4)C3)CC2)nc(C(F)(F)F)c1)C1CC1` [Example 87, 2-[(cis-4-{3-(cyanomethyl)-3-[4-(7H-pyrrolo[2,3-d]pyrimidin-4-yl)-1H-pyrazol-1-yl]azetidin-1-yl}cyclohexyl)oxy]-N-cyclopropyl-N-methyl-6-(trifluoromethyl)isonicotinamide bis(trifluoroacetate)]: the IC50 at human JAK1 was < 10 nM. Moreover, the “JAK2/JAK1 IC50 ratio” value at human JAK2 is listed as “≧10”.

As to `N#CCC1(n2cc(-c3ncnc4[nH]ccc34)cn2)CN([C@H]2CC[C@@H](Oc3cc(C(=O)N4CC(O)C4)cc(C(F)(F)F)n3)CC2)C1` [Example 89, {1-(cis-4-{[4-[(3-hydroxyazetidin-1-yl)carbonyl]-6-(trifluoromethyl)pyridin-2-yl]oxy}cyclohexyl)-3-[4-(7H-pyrrolo[2,3-d]pyrimidin-4-yl)-1H-pyrazol-1-yl]azetidin-3-yl}acetonitrile bis(trifluoroacetate)], the IC50 on human JAK1 was < 10 nM. In addition, the “JAK2/JAK1 IC50 ratio” value on human JAK2 was “≧10”.

With `N#CCC1(n2cc(-c3ncnc4[nH]ccc34)cn2)CN([C@H]2CC[C@@H](Oc3cc(C(=O)NC4CCC4)cc(C(F)(F)F)n3)CC2)C1` [Example 90, 2-[(cis-4-{3-(cyanomethyl)-3-[4-(7H-pyrrolo[2,3-d]pyrimidin-4-yl)-1H-pyrazol-1-yl]azetidin-1-yl}cyclohexyl)oxy]-N-cyclobutyl-6-(trifluoromethyl)isonicotinamide bis(trifluoroacetate)], on human JAK1, the IC50 is < 10 nM. The “JAK2/JAK1 IC50 ratio” value at human JAK2 is on record as “≧10”.

For `N#CCC1(n2cc(-c3ncnc4[nH]ccc34)cn2)CN([C@H]2CC[C@@H](Oc3cc(C(=O)N4CC(C#N)C4)cc(C(F)(F)F)n3)CC2)C1` [Example 91, 1-[2-[(cis-4-{3-(cyanomethyl)-3-[4-(7H-pyrrolo[2,3-d]pyrimidin-4-yl)-1H-pyrazol-1-yl]azetidin-1-yl}cyclohexyl)oxy]-6-(trifluoromethyl)isonicotinoyl]azetidine-3-carbonitrile bis(trifluoroacetate)], the IC50 at human JAK1 was < 10 nM. In addition, the “JAK2/JAK1 IC50 ratio” value at human JAK2 was “≧10”.

Consider `N#CCC1(n2cc(-c3ncnc4[nH]ccc34)cn2)CN([C@H]2CC[C@@H](Oc3cc(CN4CCOCC4)cc(C(F)(F)F)n3)CC2)C1` [Example 92, {1-(cis-4-{[4-(morpholin-4-ylmethyl)-6-(trifluoromethyl)pyridin-2-yl]oxy}cyclohexyl)-3-[4-(7H-pyrrolo[2,3-d]pyrimidin-4-yl)-1H-pyrazol-1-yl]azetidin-3-yl}acetonitrile tris(trifluoroacetate)], for which, at human JAK1, the IC50 was < 10 nM. Moreover, the “JAK2/JAK1 IC50 ratio” value on human JAK2 was “≧10”.

With `N#CCC1(n2cc(-c3ncnc4[nH]ccc34)cn2)CN([C@H]2CC[C@@H](Oc3cc(CN4CC[C@@H](O)C4)cc(C(F)(F)F)n3)CC2)C1` [Example 95, {1-(cis-4-{[4-{[(3R)-3-hydroxypyrrolidin-1-yl]methyl}-6-(trifluoromethyl)pyridin-2-yl]oxy}cyclohexyl)-3-[4-(7H-pyrrolo[2,3-d]pyrimidin-4-yl)-1H-pyrazol-1-yl]azetidin-3-yl}acetonitrile pentakis(trifluoroacetate)], at human JAK1, the IC50 is < 10 nM. In addition, the “JAK2/JAK1 IC50 ratio” value at human JAK2 is given as “≧10”.

Consider `N#CCC1(n2cc(-c3ncnc4[nH]ccc34)cn2)CN([C@H]2CC[C@@H](Oc3cc(CN4CC[C@H](O)C4)cc(C(F)(F)F)n3)CC2)C1` [Example 96, {1-(cis-4-{[4-{[(3S)-3-hydroxypyrrolidin-1-yl]methyl}-6-(trifluoromethyl)pyridin-2-yl]oxy}cyclohexyl)-3-[4-(7H-pyrrolo[2,3-d]pyrimidin-4-yl)-1H-pyrazol-1-yl]azetidin-3-yl}acetonitrile tris(trifluoroacetate)], for which, on human JAK1, the IC50 was < 10 nM. Further, at human JAK2, the “JAK2/JAK1 IC50 ratio” value is listed as “≧10”.

Regarding `CC1(NCc2cc(O[C@H]3CC[C@@H](N4CC(CC#N)(n5cc(-c6ncnc7[nH]ccc67)cn5)C4)CC3)nc(C(F)(F)F)c2)COC1` [Example 98, {1-(cis-4-{[4-{[(3-methyloxetan-3-yl)amino]methyl}-6-(trifluoromethyl)pyridin-2-yl]oxy}cyclohexyl)-3-[4-(7H-pyrrolo[2,3-d]pyrimidin-4-yl)-1H-pyrazol-1-yl]azetidin-3-yl}acetonitrile tetrakis(trifluoroacetate)], the IC50 against human JAK1 was < 10 nM. Moreover, the “JAK2/JAK1 IC50 ratio” value at human JAK2 is listed as “≧10”.

As for `N#CCC1(n2cc(-c3ncnc4[nH]ccc34)cn2)CN([C@H]2CC[C@@H](Oc3cc(Cn4ccnc4)cc(C(F)(F)F)n3)CC2)C1` [Example 99, {1-(cis-4-{[4-(1H-imidazol-1-ylmethyl)-6-(trifluoromethyl)pyridin-2-yl]oxy}cyclohexyl)-3-[4-(7H-pyrrolo[2,3-d]pyrimidin-4-yl)-1H-pyrazol-1-yl]azetidin-3-yl}acetonitrile tetrakis(trifluoroacetate)], the IC50 against human JAK1 is < 10 nM. The “JAK2/JAK1 IC50 ratio” value on human JAK2 is reported as “≧10”.

As to `N#CCC1(n2cc(-c3ncnc4[nH]ccc34)cn2)CN([C@H]2CC[C@@H](Oc3cc(Cn4cccn4)cc(C(F)(F)F)n3)CC2)C1` [Example 100, {1-(cis-4-{[4-(1H-pyrazol-1-ylmethyl)-6-(trifluoromethyl)pyridin-2-yl]oxy}cyclohexyl)-3-[4-(7H-pyrrolo[2,3-d]pyrimidin-4-yl)-1H-pyrazol-1-yl]azetidin-3-yl}acetonitrile tris(trifluoroacetate)], at human JAK1, the IC50 is < 10 nM. Moreover, the “JAK2/JAK1 IC50 ratio” value at human JAK2 is given as “≧10”.
